Oligonucleotides are written 5' to 3', each unit as a sugar letter and its base; * is a phosphorothioate linkage, no mark a phosphodiester; rarer units and linkages stand in square brackets, end groups in braces. Plain capitals give the bases only. e = 2'-O-(2-methoxyethyl) (MOE); [5mC] = 5-methylcytosine; d = 2'-deoxy (DNA)
How the values were obtained:
Type in all cases: cell-based
[1] = system: murine TTC39B mRNA; test: Dose-dependent antisense inhibition of murine TTC39B in mouse primary hepatocytes (Example 3); conditions: cytofectin, ~16 h
Protocol: (§1) Cells were plated at a density of 10,000 cells per well and transfected using cytofectin reagent with 6.25 nM, 12.5 nM, 25 nM, 50 nM, 100 nM, and 200 nM concentrations of antisense oligonucleotide, as specified in Table 4. After a treatment period of approximately 16 hours, RNA was isolated from the cells and TTC39B mRNA levels were measured by quantitative real-time PCR. Murine primer probe set mTtc39b_LTS00287 was used to measure mRNA levels. TTC39B mRNA levels were adjusted according to total RNA content, as measured by RIBOGREEN®. Results are presented as percent inhibition of TTC39B, relative to untreated control cells.

[2] = system: murine TTC39B mRNA; test: Antisense inhibition of murine TTC39B in mouse primary hepatocytes, single dose; conditions: 100 nM, cytofectin, ~24 h, vs untreated control; gapmers targeted to SEQ ID NO: 10-14
Procedure, shortened: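 Mouse primary hepatocytes transfected by cytofectin with 100 nM 5-10-5 MOE gapmer (20-mer, phosphorothioate, 5-methylcytosine) for ~24 h. TTC39B mRNA quantified by real-time qPCR, normalized to RIBOGREEN total RNA. Values given as percent inhibition versus untreated cells.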

[3] = system: murine TTC39B mRNA; test: Dose-dependent antisense inhibition of murine TTC39B in mouse primary hepatocytes (Example 2); conditions: cytofectin, ~16 h
Protocol: as §1, with “with” for “with 6.25 nM, 12.5 nM,”, “3.” for “4.”, “mTtc39b_LTS00287 (forward sequence: […], incorporated herein as SEQ ID NO: 94; reverse sequence: […], incorporated herein as SEQ ID NO: 95; probe sequence: […], incorporated herein as SEQ ID NO: 96)” for “mTtc39b_LTS00287”

[4] = system: murine TTC39C mRNA; test: Dose-dependent antisense inhibition of murine TTC39C in mouse primary hepatocytes; conditions: electroporation, ~16 h; for IC50: mouse primary hepatocytes
Procedure, shortened: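 Mouse primary hepatocytes (30,000/well) electroporated with antisense oligonucleotide at 500, 1,000, 2,000, 4,000 or 8,000 nM and harvested after about 16 h. TTC39C mRNA quantified by RT-qPCR (primer probe set RTS3266), normalised to RIBOGREEN total RNA; percent inhibition versus untreated cells.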

[5] = system: murine TTC39C mRNA; test: Antisense inhibition of mouse TTC39C in mouse primary hepatocytes, single dose; conditions: 8,000 nM antisense oligonucleotide, electroporation, approximately 24 hours, TTC39C mRNA by real-time PCR (RTS3266), relative to untreated control cells
Protocol: Antisense oligonucleotides were designed targeting a TTC39C nucleic acid and were tested for their effects on TTC39C mRNA in vitro. Cultured mouse primary hepatocytes at a density of 30,000 cells per well were transfected by electroporation with 8,000 nM antisense oligonucleotide. After a treatment period of approximately 24 hours, RNA was isolated from the cells and TTC39C mRNA levels were measured by quantitative real-time PCR. Mouse primer probe set RTS3266 (forward sequence […], designated herein as SEQ ID NO: 140; reverse sequence […], designated herein as SEQ ID NO: 141; probe sequence […], designated herein as SEQ ID NO: 142). TTC39C mRNA levels were adjusted according to total RNA content, as measured by RIBOGREEN®. Results are presented as percent inhibition of TTC39C, relative to untreated control cells.
The chimeric antisense oligonucleotides targeting TTC39C were designed as 5-10-5 MOE gapmers. The gapmers are 20 nucleotides in length, wherein the central gap segment is comprised of ten 2′-deoxynucleotides and is flanked on both sides (in the 5′ and 3′ directions) by wings comprising five nucleotides each. Each nucleotide in the 5′ wing segment and each nucleotide in the 3′ wing segment has a 2′-MOE modification. The internucleoside linkages throughout each gapmer are phosphorothioate (P═S) linkages. All cytosine residues throughout each gapmer are 5-methylcytosines. “Mouse Target start site” indicates the 5′-most nucleotide to which the gapmer is targeted in the mouse gene sequence.

Substance: TGTCAGTGACAGTGGCAGCT (antisense eT*eG*eT*e[5mC]*eA*dG*dT*dG*dA*d[5mC]*dA*dG*dT*dG*dG*e[5mC]*eA*eG*e[5mC]*eT) [ISIS 447159]
- percent inhibition of TTC39B mRNA ([1]; 6.25 nM): 12%
- percent inhibition of TTC39B mRNA ([1]; 12.5 nM): 19%
- percent inhibition of TTC39B mRNA ([1]; 25.0 nM): 37%
- percent inhibition of TTC39B mRNA ([1]; 50.0 nM): 62%
- percent inhibition of TTC39B mRNA ([1]; 100.0 nM): 78%
- percent inhibition of TTC39B mRNA ([1]; 200.0 nM): 86%
- % inhibition of murine TTC39B mRNA [2]: 71%
- percent inhibition of TTC39B mRNA ([3]; 25 nM): 41%
- percent inhibition of TTC39B mRNA ([3]; 50 nM): 60%
- percent inhibition of TTC39B mRNA ([3]; 100 nM): 76%
- percent inhibition of TTC39B mRNA ([3]; 200 nM): 85%

Substance: ISIS 474535: 5-10-5 MOE gapmer antisense oligonucleotide targeting murine TTC39C (antisense eT*e[5mC]*e[5mC]*eA*e[5mC]*dT*dT*d[5mC]*dA*dT*dG*dG*d[5mC]*dA*dA*eG*e[5mC]*eT*eT*eG)
- percent inhibition of TTC39C mRNA ([4]; 500.0 nM): 18%
- percent inhibition of TTC39C mRNA ([4]; 1000.0 nM): 35%
- percent inhibition of TTC39C mRNA ([4]; 2000.0 nM): 61%
- percent inhibition of TTC39C mRNA ([4]; 4000.0 nM): 83%
- percent inhibition of TTC39C mRNA ([4]; 8000.0 nM): 93%
- IC50 [4]: 1.5 µM
- % inhibition [5]: 96%

Substance: ISIS 474517: 5-10-5 MOE gapmer antisense oligonucleotide targeting murine TTC39C (antisense e[5mC]*e[5mC]*eT*e[5mC]*eG*dA*dA*dT*dG*dT*d[5mC]*dA*dT*d[5mC]*dA*eT*eG*eG*e[5mC]*eG)
- percent inhibition of TTC39C mRNA ([4]; 500.0 nM): 60%
- percent inhibition of TTC39C mRNA ([4]; 1000.0 nM): 67%
- percent inhibition of TTC39C mRNA ([4]; 2000.0 nM): 89%
- percent inhibition of TTC39C mRNA ([4]; 4000.0 nM): 95%
- percent inhibition of TTC39C mRNA ([4]; 8000.0 nM): 97%
- % inhibition [5]: 98%

Substance: ISIS 474601: 5-10-5 MOE gapmer antisense oligonucleotide targeting murine TTC39C (antisense eG*eG*e[5mC]*e[5mC]*eA*dT*dA*dT*d[5mC]*d[5mC]*dA*dA*dA*dG*d[5mC]*eT*e[5mC]*eA*e[5mC]*eA)
- percent inhibition of TTC39C mRNA ([4]; 500.0 nM): 36%
- percent inhibition of TTC39C mRNA ([4]; 1000.0 nM): 49%
- percent inhibition of TTC39C mRNA ([4]; 2000.0 nM): 65%
- percent inhibition of TTC39C mRNA ([4]; 4000.0 nM): 87%
- percent inhibition of TTC39C mRNA ([4]; 8000.0 nM): 92%
- IC50 [4]: 1 µM
- % inhibition [5]: 91%

Substance: ISIS 474662: 5-10-5 MOE gapmer antisense oligonucleotide targeting murine TTC39C (antisense eG*eG*eA*eT*eT*dT*d[5mC]*d[5mC]*dG*dG*dG*d[5mC]*dA*dT*d[5mC]*eA*eA*e[5mC]*e[5mC]*eT)
- percent inhibition of TTC39C mRNA ([4]; 500.0 nM): 28%
- percent inhibition of TTC39C mRNA ([4]; 1000.0 nM): 35%
- percent inhibition of TTC39C mRNA ([4]; 2000.0 nM): 65%
- percent inhibition of TTC39C mRNA ([4]; 4000.0 nM): 88%
- percent inhibition of TTC39C mRNA ([4]; 8000.0 nM): 94%
- IC50 [4]: 1.3 µM
- % inhibition [5]: 95%

Substance: ISIS 474607: 5-10-5 MOE gapmer antisense oligonucleotide targeting murine TTC39C (antisense eT*e[5mC]*eA*eA*eT*d[5mC]*dA*dT*dG*d[5mC]*dT*dG*d[5mC]*dA*d[5mC]*e[5mC]*eA*eG*e[5mC]*e[5mC])
- percent inhibition of TTC39C mRNA ([4]; 500.0 nM): 40%
- percent inhibition of TTC39C mRNA ([4]; 1000.0 nM): 65%
- percent inhibition of TTC39C mRNA ([4]; 2000.0 nM): 85%
- percent inhibition of TTC39C mRNA ([4]; 4000.0 nM): 92%
- percent inhibition of TTC39C mRNA ([4]; 8000.0 nM): 94%
- IC50 [4]: 0.5 µM
- % inhibition [5]: 98%

Substance: ISIS 474523: 5-10-5 MOE gapmer antisense oligonucleotide targeting murine TTC39C (antisense eG*eG*eT*e[5mC]*eA*d[5mC]*d[5mC]*d[5mC]*d[5mC]*dT*dT*d[5mC]*dG*dG*d[5mC]*e[5mC]*eA*e[5mC]*eA*eA)
- percent inhibition of TTC39C mRNA ([4]; 500.0 nM): 72%
- percent inhibition of TTC39C mRNA ([4]; 1000.0 nM): 80%
- percent inhibition of TTC39C mRNA ([4]; 2000.0 nM): 94%
- percent inhibition of TTC39C mRNA ([4]; 4000.0 nM): 96%
- percent inhibition of TTC39C mRNA ([4]; 8000.0 nM): 97%
- % inhibition [5]: 98%

Substance: ISIS 474532: 5-10-5 MOE gapmer antisense oligonucleotide targeting murine TTC39C (antisense eG*eT*eT*eG*eT*dG*d[5mC]*d[5mC]*d[5mC]*d[5mC]*dA*dT*d[5mC]*d[5mC]*dA*e[5mC]*eA*eT*e[5mC]*eA)
- percent inhibition of TTC39C mRNA ([4]; 500.0 nM): 51%
- percent inhibition of TTC39C mRNA ([4]; 1000.0 nM): 64%
- percent inhibition of TTC39C mRNA ([4]; 2000.0 nM): 84%
- percent inhibition of TTC39C mRNA ([4]; 4000.0 nM): 94%
- percent inhibition of TTC39C mRNA ([4]; 8000.0 nM): 97%
- IC50 [4]: 0.4 µM
- % inhibition [5]: 99%

Substance: ISIS 474538: 5-10-5 MOE gapmer antisense oligonucleotide targeting murine TTC39C (antisense eT*eA*eG*e[5mC]*eA*d[5mC]*dG*d[5mC]*dA*dT*dA*dT*dG*dG*d[5mC]*eG*eG*eG*eA*e[5mC])
- percent inhibition of TTC39C mRNA ([4]; 500.0 nM): 51%
- percent inhibition of TTC39C mRNA ([4]; 1000.0 nM): 58%
- percent inhibition of TTC39C mRNA ([4]; 2000.0 nM): 82%
- percent inhibition of TTC39C mRNA ([4]; 4000.0 nM): 88%
- percent inhibition of TTC39C mRNA ([4]; 8000.0 nM): 92%
- IC50 [4]: 0.4 µM
- % inhibition [5]: 96%

Source: patent US20120270929A1, “MODULATION OF TTC39 EXPRESSION TO INCREASE HDL” (ISIS Pharmaceuticals, Inc., priority 2009, published 2012)
